The source of these data is patent US9499535B2, “Kinase inhibitors” (ORIGENIS GMBH, priority 2011, dated 2016).

For orientation: IC50 means the midpoint of a concentration-inhibition curve.

The target in experiment [1] is T1, SYK kinase (Homo sapiens, UniProt P43405).
T1 construct: purchased Invitrogen, Carlsbad
The experiment is described as follows: SYK assay (OMNIA Kinase Assay, Invitrogen). The format is biochemical. Conditions: apparent Ki calculated from the IC50 using the Cheng-Prusoff equation; 1 mM ATP, 10 μM Peptide Substrate; read-out: SYK Activities: Ki. As to the method:
In the assay OMNIA® KINASE ASSAY by Invitrogen Corporation (Carlsbad) the effect of invention of a compound on the phosphorylation is determined by measurement of fluorescence intensity of a chelation-enhanced fluorophore called SOX. Upon phosphorylation of the peptide by the kinase of interest, Mg2+ is chelated to form a bridge between the SOX moiety and the phosphate group that is transferred to the specific tyrosine on the peptide. The fluorescence intensity is directly proportional to the amount of peptide phosphorylation.
To the wells of an 384 well small volume plate (Greiner, Frickenhausen) are added (i) the compound under test in 5% DMSO/distilled water (2 μl), (ii) 16 μl of the master mix containing ATP, DTT, Kinase Reaction Buffer, Omina Peptide Substrate Tyr 7 resulting in a final concentration of 1 mM ATP, 0.2 mM DTT and 10 μM Peptide Substrate.
The Master Mix and the assay plate was incubated to reaction temperature before the measurement (30° C.). The reaction was started with addition of (iii) 2 μl 4 μg/ml SYK kinase (Invitrogen, Carlsbad). During measurement fluorescence intensitiy readings were collected using a TECAN M1000 at a wavelength of λex 360/λem 485 nm every 30 s for 30 minutes. The reaction velocity was plotted versus the inhibitor concentration to determine the IC50 using XLFit 5.0 (IDBS, Guildford) to fit to a sigmoidal dose response curve, and the apparent Ki values were calculated from the IC50 using the Cheng-Prusoff equation (Cheng, Y.; Prusoff, W. H. Biochem. Pharmacol. 22, 3099-3108, 1973).

The target in experiment [2] is LRRK2 (Homo sapiens, UniProt Q5S007). The experiment is described as follows: LRRK2 assay (LanthaScreen Eu Kinase Binding Assay). Particulars: 5 nM LRRK2, 10 nM tracer 236, RT 1 h; read-out: LRRK2 Activites: IC50. An excerpt: Binding of the tracer to the kinase is detected using a europium-labeled anti-tag antibody, which binds to the kinase of interest. […] Binding of an inhibitor to the kinase competes for binding with the tracer, resulting in a loss of FRET. The fluorescence intensity ratio is directly proportional to the amount of peptide phosphorylation.
The inhibitor concentration was plotted versus the emission ratio to determine the IC50 using XLFit 5.0 (IDBS, Guildford) to fit to a sigmoidal dose response curve with a variable slope.

Chain of LRRK2 (Q5S007 970-2527 limits assumed): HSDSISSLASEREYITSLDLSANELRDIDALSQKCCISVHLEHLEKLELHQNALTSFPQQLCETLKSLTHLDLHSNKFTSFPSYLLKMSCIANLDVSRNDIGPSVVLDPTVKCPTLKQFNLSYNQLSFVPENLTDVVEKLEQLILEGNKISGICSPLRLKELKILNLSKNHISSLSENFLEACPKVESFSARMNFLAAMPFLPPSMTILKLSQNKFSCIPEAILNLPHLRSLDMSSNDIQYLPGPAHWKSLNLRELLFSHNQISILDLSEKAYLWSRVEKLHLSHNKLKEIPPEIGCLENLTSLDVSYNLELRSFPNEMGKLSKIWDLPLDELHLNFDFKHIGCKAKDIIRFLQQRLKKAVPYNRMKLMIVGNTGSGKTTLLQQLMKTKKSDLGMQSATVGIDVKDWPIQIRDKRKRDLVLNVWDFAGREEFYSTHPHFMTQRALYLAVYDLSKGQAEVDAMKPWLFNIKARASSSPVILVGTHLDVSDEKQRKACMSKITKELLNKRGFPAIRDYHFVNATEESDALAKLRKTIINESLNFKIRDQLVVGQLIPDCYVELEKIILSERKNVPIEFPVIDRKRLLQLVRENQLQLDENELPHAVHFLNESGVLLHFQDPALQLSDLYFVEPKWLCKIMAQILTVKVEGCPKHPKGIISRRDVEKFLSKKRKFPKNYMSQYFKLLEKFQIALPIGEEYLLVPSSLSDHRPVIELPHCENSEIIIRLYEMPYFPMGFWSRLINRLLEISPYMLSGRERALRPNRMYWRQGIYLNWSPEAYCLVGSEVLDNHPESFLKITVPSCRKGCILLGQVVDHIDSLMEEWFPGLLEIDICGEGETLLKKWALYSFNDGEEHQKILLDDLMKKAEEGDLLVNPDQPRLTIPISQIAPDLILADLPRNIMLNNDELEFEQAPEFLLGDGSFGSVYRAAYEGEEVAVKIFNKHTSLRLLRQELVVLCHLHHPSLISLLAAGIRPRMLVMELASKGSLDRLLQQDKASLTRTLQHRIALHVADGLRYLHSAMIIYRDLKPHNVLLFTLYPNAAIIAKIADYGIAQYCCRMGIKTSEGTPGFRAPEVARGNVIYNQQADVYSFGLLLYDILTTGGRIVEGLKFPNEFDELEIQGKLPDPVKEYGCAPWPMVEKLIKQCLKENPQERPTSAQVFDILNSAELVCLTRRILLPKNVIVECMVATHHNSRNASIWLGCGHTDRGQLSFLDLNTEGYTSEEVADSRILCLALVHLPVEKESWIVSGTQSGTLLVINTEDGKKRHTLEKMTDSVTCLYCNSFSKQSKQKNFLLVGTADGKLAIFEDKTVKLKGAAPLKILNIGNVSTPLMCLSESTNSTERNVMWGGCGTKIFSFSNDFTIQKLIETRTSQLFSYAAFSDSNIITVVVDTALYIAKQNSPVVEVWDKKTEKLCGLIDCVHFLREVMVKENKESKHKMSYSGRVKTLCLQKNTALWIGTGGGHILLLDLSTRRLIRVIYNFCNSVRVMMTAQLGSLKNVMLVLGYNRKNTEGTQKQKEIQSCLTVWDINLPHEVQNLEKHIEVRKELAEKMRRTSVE

As for `CCOc1cc2nc(Nc3ccc4cn[nH]c4c3)c3n[nH]cc3c2cc1OCC` [Example #92, (7,8-Diethoxy-2H-pyrazolo[3,4-c]quinolin-4-yl)-(1H-indazol-6-yl)-amine], in experiment [1], the Ki was 10 to 100 nM. In addition, the IC50 in experiment [2] lay within 100 to 1000 nM. The like results for `COc1ccc2nc(Nc3ccc4c(c3)N=C(NCCCO)CO4)c3n[nH]cc3c2c1` [Example #313, 3-((6-((8-methoxy-2H-pyrazolo[3,4-c]quinolin-4-yl)amino)-2H-benzo[b][1,4]oxazin-3-yl)amino)propan-1-ol] were, in that order, 10 to 100 nM and 10 to 100 nM.

Regarding `COc1ccc2nc(Nc3ccc4[nH]c(=O)oc(=O)c4c3)c3n[nH]cc3c2c1` [Example #117, 6-(8-Methoxy-2H-pyrazolo[3,4-c]quinolin-4-ylamino)-1H-benzo[d][1,3]oxazine-2,4-dione], the Ki in experiment [1] is 100 to 1000 nM. Also, in experiment [2], the IC50 was in the range of 100 to 1000 nM. With `COc1ccc2nc(Nc3ccc(C(=O)N4CCC4)cc3)c3n[nH]cc3c2c1` [Example #302, azetidin-1-yl(4-((8-methoxy-2H-pyrazolo[3,4-c]quinolin-4-yl)amino)phenyl)methanone], the Ki in experiment [1] was 10 to 100 nM. In experiment [2], the IC50 is below 10 nM.

As to `COc1ccc2nc(Nc3cccc(S(=O)(=O)CCO)c3)c3n[nH]cc3c2c1` [Example #351, 2-((3-((8-methoxy-2H-pyrazolo[3,4-c]quinolin-4-yl)amino)phenyl)sulfonyl)ethan-1-ol], the Ki in experiment [1] was 100 to 1000 nM. In experiment [2], the IC50 is 100 to 1000 nM.

Turning to `COc1ccc2nc(Nc3ccc(N4CCS(=O)(=O)CC4)cc3)c3n[nH]cc3c2c1` [Example #111, [4-(1,1-Dioxo-1lambda-6-thiomorpholin-4-yl)-phenyl]-(8-methoxy-3H-pyrazolo[3,4-c]quinolin-4-yl)-amine], the Ki in experiment [1] was 10 to 100 nM. In addition, the IC50 in experiment [2] was in the range of 10 to 100 nM. In the case of `COc1ccc2nc(Nc3ccc(F)cc3)c3n[nH]cc3c2c1` [Example #310, N-(4-fluorophenyl)-8-methoxy-2H-pyrazolo[3,4-c]quinolin-4-amine], in experiment [1], the Ki was 10 to 100 nM. Also, in experiment [2], the half-inhibitory concentration (IC50) is 100 to 1000 nM.

Turning to `COc1ccc2nc(Nc3ccc(NC(=O)C(F)(F)F)cc3)c3n[nH]cc3c2c1` [Example #312, 2,2,2-trifluoro-N-(4-((8-methoxy-2H-pyrazolo[3,4-c]quinolin-4-yl)amino)phenyl)acetamide], the Ki in experiment [1] is 100 to 1000 nM. In addition, in experiment [2], the 50% inhibitory concentration (IC50) was 100 to 1000 nM. For the compound `COc1ccc2nc(Nc3ccc4c(c3)NCCC4)c3n[nH]cc3c2c1` [Example #196, (8-Methoxy-2H-pyrazolo[3,4-c]quinolin-4-yl)-(1,2,3,4-tetrahydro-quinolin-7-yl)-amine], the Ki in experiment [1] was 10 to 100 nM. Besides, the IC50 in experiment [2] was in the range of 100 to 1000 nM. In the same order, the values of `COc1ccc2nc(Nc3cc(-c4ccccc4)n[nH]3)c3n[nH]cc3c2c1` [Example #77, (8-Methoxy-2H-pyrazolo[3,4-c]quinolin-4-yl)-(5-phenyl-2H-pyrazol-3-yl)-amine] are 10 to 100 nM and below 10 nM.

Turning to `COc1ccc2nc(Nc3ccc(C)cc3)c3n[nH]cc3c2c1` [Example #244, (8-Methoxy-2H-pyrazolo[3,4-c]quinolin-4-yl)-p-tolyl-amine], the Ki in experiment [1] was 10 to 100 nM. In addition, the IC50 in experiment [2] lay in the range of 100 to 1000 nM. Regarding `COc1cccc2c1nc(Nc1ccc(N3CCSCC3)cc1)c1n[nH]cc12` [Example #247, (6-Methoxy-2H-pyrazolo[3,4-c]quinolin-4-yl)-(4-thiomorpholin-4-yl-phenyl)-amine], the Ki in experiment [1] was 10 to 100 nM. Further, the IC50 in experiment [2] was in the range of 100 to 1000 nM.

For the compound `COc1ccc2nc(Nc3ccc(N4CCCCC4)cc3)c3n[nH]cc3c2c1` [Example #50, (8-Methoxy-2H-pyrazolo[3,4-c]quinolin-4-yl)-(4-piperidin-1-yl-phenyl)-amine], the Ki in experiment [1] was 10 to 100 nM. Besides, the IC50 in experiment [2] fell in the range of 100 to 1000 nM. The like results for `COc1ccc2nc(Nc3ccc(N4CCOCC4)cc3)c3n[nH]cc3c2c1` [Example #54, (8-Methoxy-2H-pyrazolo[3,4-c]quinolin-4-yl)-(4-morpholin-4-yl-phenyl)-amine] were, in that order, 10 to 100 nM and 10 to 100 nM.

As to `COc1ccc2nc(Nc3ccc(OC(F)F)c(OC)c3)c3n[nH]cc3c2c1` [Example #328, N-(4-(difluoromethoxy)-3-methoxyphenyl)-8-methoxy-2H-pyrazolo[3,4-c]quinolin-4-amine], the Ki in experiment [1] was 100 to 1000 nM. Moreover, the IC50 in experiment [2] was in the range of 100 to 1000 nM.

Take `COc1ccc2nc(Nc3ccc(N4CCOCC4)c(OC)c3)c3n[nH]cc3c2c1` [Example #319, 8-methoxy-N-(3-methoxy-4-morpholinophenyl)-2H-pyrazolo[3,4-c]quinolin-4-amine]: the Ki in experiment [1] is 10 to 100 nM. In experiment [2], the IC50 was in the range of 100 to 1000 nM.

With `COc1ccc2nc(Nc3cc[nH]n3)c3n[nH]cc3c2c1` [Example #66, (8-Methoxy-2H-pyrazolo[3,4-c]quinolin-4-yl)-(1H-pyrazol-3-yl)-amine], the Ki in experiment [1] is 10 to 100 nM. Besides, the IC50 in experiment [2] lay within 100 to 1000 nM. Turning to `COc1ccc2nc(Nc3ccc4c[nH]nc4c3)c3n[nH]cc3c2c1` [Example #74, (1H-Indazol-6-yl)-(8-methoxy-2H-pyrazolo[3,4-c]quinolin-4-yl)-amine], the Ki in experiment [1] is 10 to 100 nM. Besides, the IC50 in experiment [2] is 10 to 100 nM. For the compound `COc1ccc(CCNC(=O)Cc2ccc(Nc3nc4ccc(OC)cc4c4c[nH]nc34)cc2)cc1` [Example #215], in experiment [2], the IC50 is 100 to 1000 nM. Turning to `COc1ccc2nc(Nc3ccc4[nH]nnc4c3)c3n[nH]cc3c2c1` [Example #48, (1H-Benzotriazol-5-yl)-(8-methoxy-2H-pyrazolo[3,4-c]quinolin-4-yl)-amine], the IC50 in experiment [2] lay within 100 to 1000 nM. Still for that read-out and setting: the value for `Fc1cc(Nc2nc3cccc(F)c3c3cn[nH]c23)ccc1N1CCOCC1` [Example #364, 9-fluoro-N-(3-fluoro-4-morpholinophenyl)-3H-pyrazolo[3,4-c]quinolin-4-amine] was 100 to 1000 nM. Same read-out and setting: the result for `COc1ccc2nc(Nc3ccc4c(c3)NC(=O)CO4)c3[nH]ncc3c2c1` [Example #47, 6-(8-Methoxy-3H-pyrazolo[3,4-c]quinolin-4-ylamino)-4H-benzo[1,4]oxazin-3-one] reads 10 to 100 nM; that for `COc1ccc2nc(Nc3ccc(C(C)=O)cc3)c3n[nH]cc3c2c1` [Example #145, 1-[4-(8-Methoxy-2H-pyrazolo[3,4-c]quinolin-4-ylamino)-phenyl]-ethanone], 100 to 1000 nM.

For `COc1ccc(Nc2nc3ccccc3c3c[nH]nc23)cn1` [Example #25, (6-Methoxy-pyridin-3-yl)-(2H-pyrazolo[3,4-c]quinolin-4-yl)-amine], the Ki in experiment [1] was 100 to 1000 nM. On to `Cc1nsc2nc(Nc3ccc(N4CCN(C)CC4)cc3)c3n[nH]cc3c12` [Example #220, [4-(4-Methyl-piperazin-1-yl)-phenyl]-(1-methyl-7H-3-thia-2,4,6,7-tetraaza-as-indacen-5-yl)-amine], for which, in experiment [1], the Ki is 100 to 1000 nM. In the case of `COc1ccc2nc(Nc3ccc4c[nH]nc4c3)c3n[nH]cc3c2c1` [Example #15, (2H-Indazol-6-yl)-(8-methoxy-2H-pyrazolo[3,4-c]quinolin-4-yl)-amine], in experiment [2], the IC50 is 100 to 1000 nM. Take `Cc1[nH]nc2c(Nc3ccc4cn[nH]c4c3)nc3cc(C#N)ccc3c12` [Example #227, 4-(1H-Indazol-6-ylamino)-1-methyl-2H-pyrazolo[3,4-c]quinoline-7-carbonitrile]: the Ki in experiment [1] is 100 to 1000 nM. The same measure, in the same setting: the result for `COc1ccc2nc(Nc3ccc(NC(=O)Nc4cccc(C)c4)cc3)c3n[nH]cc3c2c1` [Example #289, 1-(4-((8-methoxy-2H-pyrazolo[3,4-c]quinolin-4-yl)amino)phenyl)-3-(m-tolyl)urea] reads 10 to 100 nM. On to `COc1ccc2nc(Nc3ccc4[nH]ccc4c3)c3[nH]ncc3c2c1` [Example #72, (1H-Indol-5-yl)-(8-methoxy-3H-pyrazolo[3,4-c]quinolin-4-yl)-amine], for which the Ki in experiment [1] is 100 to 1000 nM.

Turning to `N#Cc1ccc2nc(Nc3ccc4cn[nH]c4c3)c3n[nH]cc3c2c1` [Example #197, 4-(1H-Indazol-6-ylamino)-2H-pyrazolo[3,4-c]quinoline-8-carbonitrile], the Ki in experiment [1] is below 10 nM. On the same count and under the same terms, the value for `COc1ccc2nc(Nc3ccc4c(c3)NC(=O)CN4)c3n[nH]cc3c2c1` [Example #182, 7-(8-Methoxy-2H-pyrazolo[3,4-c]quinolin-4-ylamino)-3,4-dihydro-1H-quinoxalin-2-one] was 10 to 100 nM. `COc1ccc2nc(Nc3ccc(N4CCOCC4)c([N+](=O)[O-])c3)c3n[nH]cc3c2c1` [Example #359, 8-methoxy-N-(4-morpholino-3-nitrophenyl)-2H-pyrazolo[3,4-c]quinolin-4-amine]: in experiment [1], the Ki was below 10 nM.
